Tests used:
[1] = system: SCP2 cells; experiment: In vivo established bone metastasis model: SCP2 cells into left ventricle of nude mice, eIF4A3-IN-2 started when bone-metastatic tumors formed; settings: 1 mg/kg intragastric, started when BLI signal reached 2×10^7 p/sec/cm^2/sr, after 5 weeks treatment, vs vehicle
Method: Experiment 3: SCP2 cells were injected into the left ventricle of nude mice (1*10^6 cells/mouse). eIF4A3-IN-2 (1 mg/kg) treatment via intragastric administration was started when bioluminescence signal of bone-metastatic tumors reached 2×10^7 p/sec/cm^2/sr. The mice were sacrificed after 60 days, and the hindlimbs of the mice were taken for μCT analysis, H&E and TRAP staining.

[2] = system: SCP2 cells; experiment: In vivo bone metastasis prevention model: SCP2 cells into left ventricle of nude mice, eIF4A3-IN-2 intragastric from the second day; settings: 1 mg/kg intragastric from the second day after SCP2 injection, vs vehicle
Method: Experiment 2: SCP2 cells were injected into the left ventricle of nude mice (1*10^6 cells/mouse), and eIF4A3-IN-2 (1 mg/kg) was administered to the mice by intragastric administration from the second day. The mice were sacrificed after 60 days, and hindlimbs of the mice were taken for μCT analysis, H&E and TRAP staining.

`O=C(c1cnn2cc(Br)ccc12)N1CCN(C(=O)c2ccc(Br)cc2)[C@@H](c2ccc(Cl)cc2)C1` [eIF4A3-IN-2] was tested, and the bone-metastatic tumor burden [1] was “decreased”, the “onsets of bone metastases” value [1] was “dramatically reduced” and the “number of TRAP+-osteoclasts in bone surface area” value [2] was “less”. The “onsets of bone-metastases and bone-metastasis burden” value [2] was “significantly delayed” and the osteolytic areas [2] was “less”.

— patent publication US20230087196A1, “Application of circIKBKB Inhibitors and Test Reagents thereof in Diagnosis, Treatment and Prognosis Kits for Breast Cancer Bone Metastasis” (SUN YAT-SEN UNIVERSITY CANCER CENTER, priority 2021, published 2023)
